A word on the IC50: it is the point on the concentration scale where inhibition reaches its midpoint.

The results in this text go back to US11759455B2, “Substituted 1H-imidazo[4,5-b]pyridin-2(3H)-ones and their use as GLUN2B receptor modulators” (JANSSEN PHARMACEUTICA NV, priority 2016, dated 2023).

This test concerns the target T1, human GluN1/GluN2B NMDA receptors (Homo sapiens, UniProt Q13224).
T1 construct: expressed in transfected cells
In words: Cell-based calcium flux (FLIPR) assay on cloned human NR1/NR2B ion channels expressed in mammalian cells (standard and HTS buffer variants).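 Also: stable Tet-On inducible cell line, Ca2+ influx triggered by glutamate at about EC40 plus 10 µM glycine, fluorescent dye read-out over 5 min, normalized to control wells.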

Where [1] appears, read: standard assay buffer (0.5 mM MgCl2 in dye loading buffer; 137 mM NaCl, 4 mM KCl in assay buffer), human GluN1/GluN2B, read-out: NR2B IC50 (μM) standard assay.
Setting [2] is: standard assay buffer (0.5 mM MgCl2 dye loading; 137 mM NaCl, 4 mM KCl assay buffer), human GluN1/GluN2B cells, read-out: NR2B IC50 (μM) standard assay.
Setting [3] is: HTS assay buffer (1.5 mM MgCl2 in dye loading buffer; 150 mM NaCl, 3 mM KCl in assay buffer), human GluN1/GluN2B, read-out: NR2B IC50 (μM) HTS assay.

Where two headings read alike, the source gives them in different places.

T1 sequence (Q13224 27-1484, other chains not shown): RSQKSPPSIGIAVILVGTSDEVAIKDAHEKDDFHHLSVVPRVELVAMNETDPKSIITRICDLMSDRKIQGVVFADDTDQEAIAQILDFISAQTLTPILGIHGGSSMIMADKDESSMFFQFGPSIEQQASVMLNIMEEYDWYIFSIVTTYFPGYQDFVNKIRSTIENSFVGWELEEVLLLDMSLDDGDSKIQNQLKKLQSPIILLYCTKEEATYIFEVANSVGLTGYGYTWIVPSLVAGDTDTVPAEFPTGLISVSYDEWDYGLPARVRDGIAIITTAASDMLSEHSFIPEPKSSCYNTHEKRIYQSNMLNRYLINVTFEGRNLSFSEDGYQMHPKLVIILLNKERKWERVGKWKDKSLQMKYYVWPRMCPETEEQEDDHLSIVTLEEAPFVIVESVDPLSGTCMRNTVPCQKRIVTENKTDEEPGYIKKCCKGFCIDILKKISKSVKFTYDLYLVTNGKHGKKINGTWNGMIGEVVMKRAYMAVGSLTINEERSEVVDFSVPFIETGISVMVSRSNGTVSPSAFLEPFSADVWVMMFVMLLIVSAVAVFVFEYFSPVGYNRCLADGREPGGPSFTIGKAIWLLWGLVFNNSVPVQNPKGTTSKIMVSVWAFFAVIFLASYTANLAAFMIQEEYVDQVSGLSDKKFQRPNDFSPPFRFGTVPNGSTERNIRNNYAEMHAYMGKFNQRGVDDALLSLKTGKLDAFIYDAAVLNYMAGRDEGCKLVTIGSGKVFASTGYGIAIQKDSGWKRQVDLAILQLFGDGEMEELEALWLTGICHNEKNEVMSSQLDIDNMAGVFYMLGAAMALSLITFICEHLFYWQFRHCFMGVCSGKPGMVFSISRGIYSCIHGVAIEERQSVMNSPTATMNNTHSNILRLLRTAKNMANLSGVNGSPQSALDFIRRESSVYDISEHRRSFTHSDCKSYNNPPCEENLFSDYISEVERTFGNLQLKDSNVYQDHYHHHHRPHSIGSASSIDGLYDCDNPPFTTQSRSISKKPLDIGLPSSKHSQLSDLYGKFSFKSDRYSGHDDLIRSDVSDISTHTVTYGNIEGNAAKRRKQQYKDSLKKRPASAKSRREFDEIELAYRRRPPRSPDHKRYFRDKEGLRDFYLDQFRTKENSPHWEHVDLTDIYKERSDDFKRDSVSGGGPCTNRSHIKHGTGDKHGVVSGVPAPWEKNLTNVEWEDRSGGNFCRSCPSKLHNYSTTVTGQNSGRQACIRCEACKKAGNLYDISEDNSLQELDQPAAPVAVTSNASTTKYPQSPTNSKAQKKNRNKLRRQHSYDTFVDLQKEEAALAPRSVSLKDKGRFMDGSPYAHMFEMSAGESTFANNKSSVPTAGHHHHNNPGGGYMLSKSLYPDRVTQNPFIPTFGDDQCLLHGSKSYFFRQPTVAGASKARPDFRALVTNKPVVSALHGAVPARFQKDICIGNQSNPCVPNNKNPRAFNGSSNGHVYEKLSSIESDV

With `Cc1c(F)ccc(-c2cnc3c(c2)n(CC(=O)N2CCC2)c(=O)n3C)c1F` [Example 409, 1-[2-(Azetidin-1-yl)-2-oxo-ethyl]-6-(2,4-difluoro-3-methyl-phenyl)-3-methyl-imidazo[4,5-b]pyridin-2-one], under setting [1], the IC50 was 0.008 µM. In the case of `Cn1cc(Cn2c(=O)n(C)c3ncc(-c4ccc(F)c(F)c4)cc32)cn1` [Example 550, 6-(3,4-Difluorophenyl)-3-methyl-1-[(1-methylpyrazol-4-yl)methyl]imidazo[4,5-b]pyridin-2-one], the 50% inhibitory concentration (IC50) under setting [1] was found to be 0.697 µM. As to `CN1CCN(C(=O)Cn2c(=O)[nH]c3ncc(-c4cccc(C(F)(F)F)c4)cc32)CC1` [Example 193, 1-[2-(4-Methylpiperazin-1-yl)-2-oxo-ethyl]-6-[3-(trifluoromethyl)phenyl]-3H-imidazo[4,5-b]pyridin-2-one], under setting [2], the IC50 worked out at 0.587 µM. Still for that read-out and setting: next, `Cn1c(=O)n(CC(=O)NC2(C)CC(F)(F)C2)c2cc(-c3cccc(C(F)(F)F)c3)cnc21` [Example 198, N-(3,3-Difluoro-1-methyl-cyclobutyl)-2-[3-methyl-2-oxo-6-[3-(trifluoromethyl)phenyl]imidazo[4,5-b]pyridin-1-yl]acetamide]: 5.01 µM. Consider `CCOc1ccc(F)cc1-c1cnc2[nH]c(=O)n(CC(=O)NCCOC)c2c1` [Example 443, 2-[6-(2-Ethoxy-5-fluoro-phenyl)-2-oxo-3H-imidazo[4,5-b]pyridin-1-yl]-N-(2-methoxyethyl)acetamide], for which the concentration for half-maximal inhibition (IC50) under setting [3] is 1.32 µM. For the molecule `CCNC(=O)Cn1c(=O)[nH]c2ncc(-c3ccc(F)cc3C)cc21` [Example 3, N-Ethyl-2-[6-(4-fluoro-2-methyl-phenyl)-2-oxo-3H-imidazo[4,5-b]pyridin-1-yl]acetamide], the IC50 under setting [2] was determined as 0.088 µM. Turning to `Cc1cc(Cn2c(=O)[nH]c3ncc(-c4ccc(F)cc4C)cc32)no1` [Example 522, 6-(4-Fluoro-2-methyl-phenyl)-1-[(5-methylisoxazol-3-yl)methyl]-3H-imidazo[4,5-b]pyridin-2-one], the concentration for half-maximal inhibition (IC50) under setting [1] amounted to 0.034 µM.

As to `O=C(Cn1c(=O)n(CF)c2ncc(-c3ccc(C(F)(F)F)s3)cc21)N1CC(F)C1` [Example 597, 1-[2-(3-Fluoroazetidin-1-yl)-2-oxo-ethyl]-3-(fluoromethyl)-6-[5-(trifluoromethyl)-2-thienyl]imidazo[4,5-b]pyridin-2-one], the concentration for half-maximal inhibition (IC50) under setting [1] worked out at 0.063 µM. For the molecule `CN(C)C(=O)Cn1c(=O)n(C)c2ncc(-c3cccc(F)c3F)cc21` [Example 425, 2-[6-(2,3-Difluorophenyl)-3-methyl-2-oxo-imidazo[4,5-b]pyridin-1-yl]-N,N-dimethyl-acetamide], the 50% inhibitory concentration (IC50) under setting [1] came to 0.408 µM. In the case of `Cn1c(=O)n(Cc2ccncc2)c2cc(-c3ccc(F)c(F)c3)cnc21` [Example 58, 6-(3,4-Difluorophenyl)-3-methyl-1-(4-pyridylmethyl)imidazo[4,5-b]pyridin-2-one], the concentration for half-maximal inhibition (IC50) under setting [2] stood at 1.9 µM. Regarding `Cc1c(F)ccc(-c2cnc3c(c2)n(Cc2ccncc2)c(=O)n3C)c1F` [Example 66, 6-(2,4-Difluoro-3-methyl-phenyl)-3-methyl-1-(4-pyridylmethyl)imidazo[4,5-b]pyridin-2-one], the half-maximal inhibitory concentration (IC50) under setting [2] was 0.725 µM. Regarding `CN(C)C(=O)Cn1c(=O)n(C)c2ncc(-c3ccc(C(F)F)s3)cc21` [Example 94, 2-[6-[5-(Difluoromethyl)-2-thienyl]-3-methyl-2-oxo-imidazo[4,5-b]pyridin-1-yl]-N,N-dimethyl-acetamide], the half-maximal inhibitory concentration (IC50) under setting [2] was found to be 0.017 µM. With `COc1cccc(-c2cnc3[nH]c(=O)n(Cc4ccccc4C#N)c3c2)c1` [Example 485, 2-[[6-(3-Methoxyphenyl)-2-oxo-3H-imidazo[4,5-b]pyridin-1-yl]methyl]benzonitrile], under setting [1], the IC50 came to 0.031 µM. For `Cn1c(=O)n(CC(=O)N2CCC2)c2cc(-c3ccc(F)c(C(F)F)c3)cnc21` [Example 584, 1-[2-(Azetidin-1-yl)-2-oxo-ethyl]-6-[3-(difluoromethyl)-4-fluoro-phenyl]-3-methyl-imidazo[4,5-b]pyridin-2-one], under setting [1], the IC50 came out at 0.024 µM.

As for `Cc1cccc(-c2cnc3[nH]c(=O)n(CCN4CCC4)c3c2)c1` [Example 154, 1-[2-(Azetidin-1-yl)ethyl]-6-(m-tolyl)-3H-imidazo[4,5-b]pyridin-2-one], the IC50 under setting [2] was 0.077 µM. Turning to `O=c1[nH]c2ncc(-c3cc(F)cc(F)c3)cc2n1Cc1cccc(Cl)c1` [Example 504, 1-[(3-Chlorophenyl)methyl]-6-(3,5-difluorophenyl)-3H-imidazo[4,5-b]pyridin-2-one], the IC50 under setting [3] was determined as 4.13 µM. Consider `Cn1c(=O)n(CC(=O)N2CCC2)c2cc(-c3ccc(F)s3)cnc21` [Example 81, 1-[2-(Azetidin-1-yl)-2-oxo-ethyl]-6-(5-fluoro-2-thienyl)-3-methyl-imidazo[4,5-b]pyridin-2-one], for which the IC50 under setting [2] worked out at 0.031 µM. For `Cc1cc(Cn2c(=O)n(C)c3ncc(-c4ccc(F)c(C)c4F)cc32)no1` [Example 571, 6-(2,4-Difluoro-3-methyl-phenyl)-3-methyl-1-[(5-methylisoxazol-3-yl)methyl]imidazo[4,5-b]pyridin-2-one], the IC50 under setting [1] amounted to 0.037 µM.

With `Cc1cc(-c2cnc3c(c2)n(Cc2cnccn2)c(=O)n3C)ccc1F` [Example 47, 6-(4-Fluoro-3-methyl-phenyl)-3-methyl-1-(pyrazin-2-ylmethyl)imidazo[4,5-b]pyridin-2-one], under setting [2], the IC50 stood at 0.113 µM.

As for `COc1ccc(-c2cnc3[nH]c(=O)n(Cc4ccccc4C#N)c3c2)cc1F` [Example 491, 2-[[6-(3-Fluoro-4-methoxy-phenyl)-2-oxo-3H-imidazo[4,5-b]pyridin-1-yl]methyl]benzonitrile], the IC50 under setting [1] was found to be 0.053 µM. Turning to `Cn1c(=O)n(CC(=O)N2CC(F)C2)c2cc(-c3ccc(CO)s3)cnc21` [Example 90, 1-[2-(3-Fluoroazetidin-1-yl)-2-oxo-ethyl]-6-[5-(hydroxymethyl)-2-thienyl]-3-methyl-imidazo[4,5-b]pyridin-2-one], under setting [2], the IC50 came to 0.915 µM. For the molecule `Cc1cc(Cn2c(=O)[nH]c3ncc(-c4ccc(F)cc4)cc32)nn1C` [Example 16, 1-[(1,5-Dimethylpyrazol-3-yl)methyl]-6-(4-fluorophenyl)-3H-imidazo[4,5-b]pyridin-2-one], under setting [2], the IC50 was found to be 8.9 µM. With `O=c1[nH]c2ncc(-c3cccc(Cl)c3)cc2n1CCN1CCC1` [Example 158, 1-[2-(Azetidin-1-yl)ethyl]-6-(3-chlorophenyl)-3H-imidazo[4,5-b]pyridin-2-one], under setting [2], the IC50 amounted to 0.201 µM. Same read-out and setting: then `Cn1c(=O)n(CC(=O)N2CC(F)C2)c2cc(-c3ccsc3C(F)(F)F)cnc21` [Example 92, 1-[2-(3-Fluoroazetidin-1-yl)-2-oxo-ethyl]-3-methyl-6-[2-(trifluoromethyl)-3-thienyl]imidazo[4,5-b]pyridin-2-one], with 0.249 µM. Consider `Cn1c(=O)n(CC(=O)N2CC(F)C2)c2cc(-c3cc(F)c(F)c(F)c3)cnc21` [Example 402, 1-[2-(3-Fluoroazetidin-1-yl)-2-oxo-ethyl]-3-methyl-6-(3,4,5-trifluorophenyl)imidazo[4,5-b]pyridin-2-one], for which the IC50 under setting [1] worked out at 0.016 µM.

With `Cc1cc(Cn2c(=O)n(C)c3ncc(-c4ccc(C(F)(F)F)s4)cc32)no1` [Example 570, 3-Methyl-1-[(5-methylisoxazol-3-yl)methyl]-6-[5-(trifluoromethyl)-2-thienyl]imidazo[4,5-b]pyridin-2-one], the half-maximal inhibitory concentration (IC50) under setting [1] worked out at 0.139 µM. As to `Cn1c(=O)n(CC(=O)NCCCCl)c2cc(-c3ccc(C(F)(F)F)s3)cnc21` [Example 532, N-(3-Chloropropyl)-2-[3-methyl-2-oxo-6-[5-(trifluoromethyl)-2-thienyl]imidazo[4,5-b]pyridin-1-yl]acetamide], the half-inhibitory concentration (IC50) under setting [1] worked out at 0.862 µM. Take `O=c1[nH]c2ncc(-c3cccc(Cl)c3)cc2n1Cc1cncc(F)c1` [Example 305, 6-(3-Chlorophenyl)-1-[(5-fluoro-3-pyridyl)methyl]-3H-imidazo[4,5-b]pyridin-2-one]: the concentration for half-maximal inhibition (IC50) under setting [2] came out at 0.013 µM. For the molecule `Cc1cncc(Cn2c(=O)[nH]c3ncc(-c4cccc(C(F)(F)F)c4)cc32)c1` [Example 242, 1-[(5-Methyl-3-pyridyl)methyl]-6-[3-(trifluoromethyl)phenyl]-3H-imidazo[4,5-b]pyridin-2-one], under setting [2], the IC50 worked out at 0.15 µM. `Cc1cc(-c2cnc3c(c2)n(Cc2cncc(F)c2)c(=O)n3C)ccc1F` [Example 340, 6-(4-Fluoro-3-methyl-phenyl)-1-[(5-fluoro-3-pyridyl)methyl]-3-methyl-imidazo[4,5-b]pyridin-2-one]: the IC50 under setting [1] is 0.052 µM. Turning to `COc1cc(F)ccc1-c1cnc2[nH]c(=O)n(Cc3cc(C)on3)c2c1` [Example 520, 6-(4-Fluoro-2-methoxy-phenyl)-1-[(5-methylisoxazol-3-yl)methyl]-3H-imidazo[4,5-b]pyridin-2-one], under setting [1], the IC50 was 0.019 µM. With `Cc1noc(Cn2c(=O)n(C)c3ncc(-c4ccc(C)s4)cc32)n1` [Example 557, 3-Methyl-1-[(3-methyl-1,2,4-oxadiazol-5-yl)methyl]-6-(5-methyl-2-thienyl)imidazo[4,5-b]pyridin-2-one], the concentration for half-maximal inhibition (IC50) under setting [1] is 0.671 µM. Same read-out and setting: next, `Cc1ccc(-c2cnc3c(c2)n(CC(=O)N2CCC2)c(=O)n3C)s1` [Example 326, 1-[2-(Azetidin-1-yl)-2-oxo-ethyl]-3-methyl-6-(5-methyl-2-thienyl)imidazo[4,5-b]pyridin-2-one]: 0.022 µM. `O=c1[nH]c2ncc(-c3cccc(C(F)(F)F)c3)cc2n1Cc1csnn1` [Example 243, 1-(Thiadiazol-4-ylmethyl)-6-[3-(trifluoromethyl)phenyl]-3H-imidazo[4,5-b]pyridin-2-one]: the 50% inhibitory concentration (IC50) under setting [2] came out at 0.065 µM.

Regarding `COc1ncccc1Cn1c(=O)[nH]c2ncc(-c3cccc(C(F)(F)F)c3)cc21` [Example 22, 1-[(2-Methoxy-3-pyridyl)methyl]-6-[3-(trifluoromethyl)phenyl]-3H-imidazo[4,5-b]pyridin-2-one], the half-inhibitory concentration (IC50) under setting [2] was found to be 26.7 µM.
